In patent US6653340B1, “Compounds useful in the complement, coagulat and kallikrein pathways and method for their preparation” (BioCryst Pharmaceuticals, Inc., priority 1997, dated 2003):

Experiments:
Assay type in all cases: biochemical
C1s = target: T1, C1s (Homo sapiens, UniProt P09871); test: C1s esterolytic inhibition assay (Z-Lys-SBzl substrate); details: Z-Lys-SBzl 1.29 mM, C1s 3 to 13 nM; read-out: Cls (Serine Protease Inhibitory Data, IC50)
T1 sequence (P09871 16-688): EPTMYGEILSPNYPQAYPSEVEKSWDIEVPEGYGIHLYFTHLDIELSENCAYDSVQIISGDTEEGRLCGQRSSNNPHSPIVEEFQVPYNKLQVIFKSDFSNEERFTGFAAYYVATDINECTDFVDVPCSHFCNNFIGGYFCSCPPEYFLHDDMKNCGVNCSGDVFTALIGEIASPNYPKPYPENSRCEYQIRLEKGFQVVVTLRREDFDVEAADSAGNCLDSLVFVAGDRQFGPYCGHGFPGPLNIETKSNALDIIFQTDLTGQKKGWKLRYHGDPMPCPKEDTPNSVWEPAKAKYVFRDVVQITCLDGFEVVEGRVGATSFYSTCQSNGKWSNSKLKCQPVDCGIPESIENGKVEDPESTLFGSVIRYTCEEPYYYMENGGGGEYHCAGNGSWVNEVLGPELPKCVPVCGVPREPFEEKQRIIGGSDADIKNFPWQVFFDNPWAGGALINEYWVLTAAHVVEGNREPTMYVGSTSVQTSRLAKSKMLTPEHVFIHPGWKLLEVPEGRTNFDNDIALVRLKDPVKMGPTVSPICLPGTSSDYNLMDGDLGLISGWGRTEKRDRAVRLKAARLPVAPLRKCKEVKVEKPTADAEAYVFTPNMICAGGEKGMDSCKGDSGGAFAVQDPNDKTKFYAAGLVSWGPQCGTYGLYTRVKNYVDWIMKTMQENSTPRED
Procedure: (§1) The compounds to be tested were dissolved in a stock solution of DMSO at 10.0 or 100 mM. A portion of this stock solution was added to assay buffer in a final volume of 100 μL containing the enzyme of interest. Controls included buffer alone and enzyme solutions to which DMSO was added. Substrate was added to the reaction wells immediately or after incubation at room temperature. The reaction rates were measured spectrophotometrically by the generation of product at 405 nm for 200 sec. Background absorbance at 690 nm was measured and subtracted from the absorbance at 405 nm for each well.
(§2) The reaction rate for enzyme alone was compared to the rate of enzyme in the presence of inhibitor and the percent inhibition was calculated as shown below:
(§3) Percent Inhibition=[Rate without inhibitor−Rate with inhibitor)/(Rate without inhibitor)]×100
(§4) Compounds in the examples were tested a minimum of three times.
C1s esterolytic activity was assayed using a modification of the technique originally described by Kam using Z-Lys-SBzl, 1.29 mM as substrate and C1s at 3 to 13 nM.

Thrombin = Thrombin (Homo sapiens, UniProt P00734); test: Thrombin inhibition assay (N-Benzoyl-Phe-Val-Arg-p-nitroanilide substrate); details: thrombin 12.5 U/ml, pH 7.5; read-out: Thrombin (Serine Protease Inhibitory Data, IC50)
Procedure: as §1, §2, §3, §4
(§5) Thrombin was assayed at 12.5 U/ml using 0.37 mM N-Benzoyl-Phe-Val-Arg-p-nitroanilide (Svendsen, L.; Blomback B.; Blomback, M.; Olsson, P. I. Substrate for determination of trypsin, thrombin and thrombin-like enzymes. Folia Haematol. 1972, 98, 446-454.) as the substrate in 100 mM HEPES, 10 mM CaCl2, 10% DMSO, pH 7.5. Factor Xa, 0.5 U/mL, was assayed in 50 mM HEPES, 150 mM NaCl, 10 mM CaCl2, pH 8.0 using Chromozyme X, 0.17 mM, as the substrate. Plasmin (0.004 units/mL), factor XIIa ([…]) and kallikrein (0.02 units/mL were assayed using modifications of the techniques originally described by McRae, et al. (Biochemistry. 1981, 20, 7196-7206). The assays were run in 200 mM triethanolamine, pH 7.8 and 100 mM Tris-HCl, 100 mM EDTA, […] using Z-Lys-SBzl, 0.13 mM and […], 0.16 mM, as substrates, respectively.

Factor Xa = Factor Xa (Homo sapiens, UniProt P00742); test: Factor Xa inhibition assay (Chromozyme X substrate); details: Factor Xa 0.5 U/mL, pH 8.0; read-out: Xa (Serine Protease Inhibitory Data, IC50)
Chain of Factor Xa (P00742 235-488 limits assumed): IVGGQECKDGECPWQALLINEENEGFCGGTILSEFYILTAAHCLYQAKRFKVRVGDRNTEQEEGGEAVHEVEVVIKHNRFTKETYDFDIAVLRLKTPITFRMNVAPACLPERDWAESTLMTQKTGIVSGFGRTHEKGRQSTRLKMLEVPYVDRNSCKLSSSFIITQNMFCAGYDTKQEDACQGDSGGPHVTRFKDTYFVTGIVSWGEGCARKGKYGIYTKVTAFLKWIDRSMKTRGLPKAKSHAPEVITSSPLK
Chain of Factor Xa (P00742 41-179 partner limits assumed): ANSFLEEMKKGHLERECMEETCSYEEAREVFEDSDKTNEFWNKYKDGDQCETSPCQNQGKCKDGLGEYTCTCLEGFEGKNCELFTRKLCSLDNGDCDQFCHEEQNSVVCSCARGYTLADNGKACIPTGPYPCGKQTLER
Procedure: as §1, §2, §3, §4, §5

kallikrein = kallikrein (Homo sapiens, UniProt P03952); test: Kallikrein inhibition assay (thioester substrate); details: kallikrein 0.02 units/mL; read-out: Kallikrein (Serine Protease Inhibitory Data, IC50)
Chain of kallikrein (P03952 whole entry): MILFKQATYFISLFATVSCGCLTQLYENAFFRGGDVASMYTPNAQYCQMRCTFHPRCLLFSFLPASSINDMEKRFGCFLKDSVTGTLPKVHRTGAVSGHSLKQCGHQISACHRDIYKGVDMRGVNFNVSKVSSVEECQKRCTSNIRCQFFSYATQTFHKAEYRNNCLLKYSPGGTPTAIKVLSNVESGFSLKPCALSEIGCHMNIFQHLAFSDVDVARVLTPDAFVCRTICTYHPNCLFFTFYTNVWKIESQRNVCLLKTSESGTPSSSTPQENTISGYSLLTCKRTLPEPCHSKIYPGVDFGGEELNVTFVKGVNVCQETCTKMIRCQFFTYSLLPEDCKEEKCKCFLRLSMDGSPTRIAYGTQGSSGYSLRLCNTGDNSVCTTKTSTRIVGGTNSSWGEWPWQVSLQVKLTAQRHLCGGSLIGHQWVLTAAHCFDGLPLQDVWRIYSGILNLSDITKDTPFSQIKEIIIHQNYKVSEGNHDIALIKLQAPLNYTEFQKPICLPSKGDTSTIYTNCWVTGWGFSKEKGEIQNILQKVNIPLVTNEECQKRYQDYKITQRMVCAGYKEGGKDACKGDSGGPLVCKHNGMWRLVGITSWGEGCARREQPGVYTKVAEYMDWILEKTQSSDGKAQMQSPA
Procedure: as §1, §2, §3, §4, §5

factor XIIa = target: T2, factor XIIa (Homo sapiens, UniProt P00748); test: Factor XIIa inhibition assay (thioester substrate); details: read-out: XIIa (Serine Protease Inhibitory Data, IC50)
T2 sequence (P00748 373-615 limits assumed): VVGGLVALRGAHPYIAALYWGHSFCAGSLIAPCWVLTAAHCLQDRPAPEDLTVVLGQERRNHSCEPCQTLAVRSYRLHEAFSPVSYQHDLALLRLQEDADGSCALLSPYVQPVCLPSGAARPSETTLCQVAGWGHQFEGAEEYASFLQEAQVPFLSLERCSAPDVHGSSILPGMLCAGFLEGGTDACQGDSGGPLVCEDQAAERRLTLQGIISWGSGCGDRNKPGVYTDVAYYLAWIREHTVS
Procedure: as §1, §2, §3, §4, §5

Plasmin = Plasmin (Homo sapiens, UniProt P00747); test: Plasmin inhibition assay (thioester substrate); details: plasmin 0.004 units/mL; read-out: Plasmin (Serine Protease Inhibitory Data, IC50)
Chain of Plasmin (P00747 581-810 limits assumed, species assumed): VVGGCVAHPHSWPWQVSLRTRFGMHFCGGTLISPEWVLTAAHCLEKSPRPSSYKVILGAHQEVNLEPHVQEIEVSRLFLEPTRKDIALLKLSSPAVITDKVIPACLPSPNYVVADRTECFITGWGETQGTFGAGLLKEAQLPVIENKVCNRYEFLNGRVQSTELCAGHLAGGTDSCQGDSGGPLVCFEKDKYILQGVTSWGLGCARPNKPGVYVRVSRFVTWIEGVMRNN
Chain of Plasmin (P00747 97-580 partner limits assumed, species assumed): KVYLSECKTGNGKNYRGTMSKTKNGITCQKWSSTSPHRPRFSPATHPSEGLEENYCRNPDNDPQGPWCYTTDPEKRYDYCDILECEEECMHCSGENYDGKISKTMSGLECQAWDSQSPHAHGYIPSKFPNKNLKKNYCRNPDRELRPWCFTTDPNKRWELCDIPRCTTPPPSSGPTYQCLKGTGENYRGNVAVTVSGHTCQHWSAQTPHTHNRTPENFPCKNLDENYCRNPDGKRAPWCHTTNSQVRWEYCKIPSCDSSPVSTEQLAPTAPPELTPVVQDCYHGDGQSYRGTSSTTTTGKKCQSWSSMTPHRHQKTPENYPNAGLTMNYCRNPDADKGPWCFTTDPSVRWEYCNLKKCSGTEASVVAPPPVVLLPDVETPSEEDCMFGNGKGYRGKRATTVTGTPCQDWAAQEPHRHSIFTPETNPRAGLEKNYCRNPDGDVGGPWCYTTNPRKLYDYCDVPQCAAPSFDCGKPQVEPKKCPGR
Procedure: as §1, §2, §3, §4, §5

Factor D = Factor D (Homo sapiens, UniProt P00746); test: Factor D esterolytic inhibition assay (Z-Lys-SBzl substrate); parameters: Factor D was purified from the urine of a patient with Fanconi syndrome by ion exchange chromatography; from tissue; host or cells: urine of a patient with Fanconi syndrome; details: Z-Lys-SBzl 1.29 mM, pH 7.5, 10% DMSO; read-out: Factor D (Serine Protease Inhibitory Data, IC50)
Chain of Factor D (P00746 26-253): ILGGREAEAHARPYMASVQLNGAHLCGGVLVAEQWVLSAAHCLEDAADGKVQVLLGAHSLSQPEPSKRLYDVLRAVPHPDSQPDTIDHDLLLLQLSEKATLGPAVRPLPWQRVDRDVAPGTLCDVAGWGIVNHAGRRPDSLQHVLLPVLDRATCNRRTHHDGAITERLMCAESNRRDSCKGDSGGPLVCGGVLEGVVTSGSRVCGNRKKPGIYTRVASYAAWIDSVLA
Text: A modification of the procedure of Volanakis (Volankis, J. E.; Barnum, S. R.; Kilpatrick, J. M. Purification and properties of human factor D. Methods in Enzymol. 1993, 223, 82-97) for purification of Factor D was utilized as described by Yamauchi (Yamauchi, Y.; Stevens, J. W.; Macon, K. J.; Volanakis, J. E. Recombinant and native zymogen forms of human complement factor D. J. Immunol. 1994, 152, 3645-3653. Briefly, Factor D was purified from the urine of a patient with Fanconi syndrome by ion exchange chromatography using BioRex 70 and two rounds of ion-exchange chromatography in a Pharmacia FPLC system using a HR5/5 Mono S column.
as §1, §2, §3, §4
An established esterolytic assay for the measurement of Factor D activity and inhibition of Factor D activity was used (Kam, C. M.; McRae, B. J.; Harper, J. W.; Niemann, M. A.; Volanakis, J. E.; Powers, J. C. Human complement proteins D, C2, and B Active site mapping with peptide thioester substrates. J Biol. Chem. 1987, 262, 3444-3451). […] Hydrolysis of this compound by Factor D liberated a free sulfhydryl group which is then reacted with 5,5′-dithiobis(2nitrobenzoic acid) producing an intense yellow color (Habeeb, A. F. S. A. Reaction of protein sulfhydryl groups with Ellman's Reagent. Methods in Enzymol. 1976, 25, 457-464.). The assays were performed in 96 well microtiter plates and rates of hydrolysis were monitored at 405 nm in a Anthos Labtec HT2 plate reader. Hydrolysis rates were reported as change in mOD/min. The assay was conducted in 100 mM HEPES, 500 mM NaCl, pH 7.5 containing 10% DMSO in a final volume of 200 μL per well.

With `N=C(N)c1cc2ccc(OC(=O)c3ccco3)cc2o1` [Example 1, 2-Amidino-6-benzofuranyl 2-furanylcarboxylate] as the compound, how does the IC50 (C1s) read?
Its IC50 is 37 nM.

What about the IC50 (Thrombin) of the same compound?
The IC50 was 57 nM.

And the IC50 (Factor Xa)?
The IC50 was 60 nM.

And the IC50 (kallikrein)?
The IC50 was 5.4 nM.

And the IC50 (factor XIIa)?
Its IC50 is 20 nM.

And the IC50 (Plasmin)?
Its IC50 is 42 nM.

And the IC50 (Factor D)?
The IC50 was 3650 nM.

Which results are given for `N=C(N)c1cc2ccc(OC(=O)c3cccs3)cc2o1` [Example 2]?
IC50 (C1s): 519 nM; IC50 (Thrombin): 520 nM; IC50 (Factor Xa): 996 nM; IC50 (Plasmin): 817 nM; IC50 (Factor D): 9110 nM

Which results are given for `N=C(N)c1cc2cc(OC(=O)c3ccco3)ccc2o1` [Example 3]?
IC50 (C1s): 56 nM; IC50 (Thrombin): 65 nM; IC50 (Factor Xa): 4 nM; IC50 (kallikrein): 5.4 nM; IC50 (factor XIIa): 20.2 nM; IC50 (Plasmin): 23 nM; IC50 (Factor D): 460 nM

For `N=C(N)c1cc2cc(OC(=O)c3cccs3)ccc2o1` [Example 4], which IC50 (C1s) is on record?
Its IC50 is 50 nM.

And the IC50 (Thrombin)?
The IC50 was 124 nM.

What about the IC50 (Factor Xa) of the same compound?
The IC50 was 880 nM.

And the IC50 (Plasmin)?
The IC50 was 116 nM.

What about the IC50 (Factor D) of the same compound?
Its IC50 is 5590 nM.

Which results are given for `N=C(N)c1cc2cc(OC(=O)c3ccoc3)ccc2o1` [Example 5]?
IC50 (C1s): 76 nM; IC50 (Thrombin): 104 nM; IC50 (Factor Xa): 1580 nM; IC50 (Plasmin): 325 nM; IC50 (Factor D): 2850 nM

For `N=C(N)c1cc2cc(OC(=O)c3ccsc3)ccc2o1` [Example 6], which IC50 (C1s) is on record?
Its IC50 is 122 nM.

And the IC50 (Thrombin)?
The IC50 was 361 nM.

And the IC50 (Factor Xa)?
The IC50 was 500 nM.

What about the IC50 (Plasmin) of the same compound?
The IC50 was 546 nM.

And the IC50 (Factor D)?
The IC50 was 10800 nM.

Which IC50 (C1s) does the source give for `N=C(N)c1cc2ccc(OC(=O)c3ccccc3)cc2s1` [Example 7] here?
Its IC50 is 11 nM.

What about the IC50 (Thrombin) of the same compound?
Its IC50 is 39 nM.

And the IC50 (Factor Xa)?
The IC50 was 23 nM.

And the IC50 (kallikrein)?
The IC50 was 1.3 nM.

What about the IC50 (factor XIIa) of the same compound?
The IC50 was 901 nM.

What about the IC50 (Plasmin) of the same compound?
The IC50 was 11 nM.

And the IC50 (Factor D)?
The IC50 was 500 nM.

Which IC50 (C1s) does the source give for `N=C(N)c1cc2ccc(OC(=O)c3ccco3)cc2s1` [Example 8] here?
Its IC50 is 1.7 nM.

And the IC50 (Thrombin)?
Its IC50 is 44 nM.

What about the IC50 (Factor Xa) of the same compound?
Its IC50 is 1 nM.

And the IC50 (kallikrein)?
Its IC50 is 1.4 nM.

And the IC50 (factor XIIa)?
Its IC50 is 5.4 nM.

And the IC50 (Plasmin)?
The IC50 was 1 nM.

What about the IC50 (Factor D) of the same compound?
The IC50 was 147 nM.

`N=C(N)c1cc2ccc(OC(=O)c3cccs3)cc2s1` [Example 9] was tested. Which IC50 (C1s) did it give?
Its IC50 is 1.6 nM.

What about the IC50 (Thrombin) of the same compound?
Its IC50 is 42 nM.

What about the IC50 (Factor Xa) of the same compound?
Its IC50 is 3.2 nM.

What about the IC50 (kallikrein) of the same compound?
The IC50 was 1.4 nM.

What about the IC50 (factor XIIa) of the same compound?
Its IC50 is 6 nM.

What about the IC50 (Plasmin) of the same compound?
The IC50 was 4.1 nM.

And the IC50 (Factor D)?
The IC50 was 96 nM.

Which IC50 (C1s) does the source give for `N=C(N)c1cc2ccc(OC(=O)c3ccoc3)cc2s1` [Example 10] here?
Its IC50 is 4.1 nM.

And the IC50 (Thrombin)?
The IC50 was 47 nM.

And the IC50 (Factor Xa)?
Its IC50 is 1 nM.

And the IC50 (kallikrein)?
Its IC50 is 1.6 nM.

And the IC50 (factor XIIa)?
The IC50 was 17.4 nM.

What about the IC50 (Plasmin) of the same compound?
Its IC50 is 1 nM.

What about the IC50 (Factor D) of the same compound?
The IC50 was 177 nM.
